Assay results reported in patent publication US20260356856A1, “KRAS G12S AND G12C INHIBITORS” (MIRATI THERAPEUTICS, INC., priority 2023, published 2026).

Assays:
Test in all cases: KRas binding assay, TR-FRET displacement of Cy5 labelled tracer
Details in all cases: 60-minute incubation at room temperature, 1% DMSO, pH 7.5
KRas WT = target: T1, KRas WT (Homo sapiens, UniProt P01116)
T1 construct: Biotinylated KRas (corresponding to amino acids 1-169, produced at Accelegan Inc.); biotin (biotinylated); purchased Accelegan Inc
Description: (§1) This Example illustrates that exemplary compounds of the present invention bind to KRas and are capable of displacing a labeled tracer ligand occupying the KRas binding site. KRas^WT, KRas^G12A, KRas^G12C, KRas^G12D, KRas^G12R, KRas^G12S, KRas^G12V, KRas^G13D, or KRas^Q61H was used in the assay.
(§2) The ability of a compound to bind to KRas was measured using a TR-FRET displacement assay. Biotinylated KRas (corresponding to amino acids 1-169, produced at Accelegan Inc.) was incubated with custom made Cy5 labelled tracer, terbium streptavidin (Cisbio Inc.) and compound (1% DMSO final) in buffer (50 mM HEPES, pH 7.5, 5 mM MgCl2, 0.005% Tween-20 and 1 mM DTT). After a 60-minute incubation at room temperature, the reaction was measured using a BMG LABTECH CLARIO star Plus via TR-FRET. […] The POC values were fit to a 4-parameter IC50 equation and the IC50 value reported.

KRas G12C = target: T2, KRas G12C (Homo sapiens, UniProt P01116, G12C)
T2 construct: Biotinylated KRas (corresponding to amino acids 1-169, produced at Accelegan Inc.); biotin (biotinylated); purchased Accelegan Inc
Description: as §1, §2

KRas G12S = target: T3, KRas G12S (Homo sapiens, UniProt P01116, G12S)
T3 construct: Biotinylated KRas (corresponding to amino acids 1-169, produced at Accelegan Inc.); biotin (biotinylated); purchased Accelegan Inc
Description: as §1, §2

T2 sequence (P01116 1-169 isoform P01116-2 G12C): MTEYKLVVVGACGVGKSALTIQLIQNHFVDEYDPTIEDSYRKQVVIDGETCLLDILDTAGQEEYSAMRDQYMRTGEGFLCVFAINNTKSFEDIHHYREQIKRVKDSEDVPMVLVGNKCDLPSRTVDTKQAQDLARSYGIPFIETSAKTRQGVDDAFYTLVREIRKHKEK
T3 sequence (P01116 1-169 isoform P01116-2 G12S): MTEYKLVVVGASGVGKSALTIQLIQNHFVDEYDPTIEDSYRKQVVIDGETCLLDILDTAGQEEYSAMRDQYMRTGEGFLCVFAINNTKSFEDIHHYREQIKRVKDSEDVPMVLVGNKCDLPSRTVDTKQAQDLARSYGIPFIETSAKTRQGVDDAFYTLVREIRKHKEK
T1 sequence (P01116 1-169 isoform P01116-2): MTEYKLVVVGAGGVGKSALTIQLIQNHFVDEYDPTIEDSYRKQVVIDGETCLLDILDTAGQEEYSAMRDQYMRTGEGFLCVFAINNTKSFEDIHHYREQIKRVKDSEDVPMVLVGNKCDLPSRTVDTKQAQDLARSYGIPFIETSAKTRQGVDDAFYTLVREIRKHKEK

| SMILES | IC50 (KRas WT) | IC50 (KRas G12C) | IC50 (KRas G12S) |
| --- | --- | --- | --- |
| N#Cc1ccccc1OC(=O)[C@@H]1[C@@H]2CC[C@H]1CN(c1nc(OCC34CCCN3CCC4)nc3c(F)c(-c4cccc5cccc(F)c45)ncc13)C2 [Example 21, 2-cyanophenyl (1R,5S,8r)-3-(8-fluoro-7-(8-fluoronaphthalen-1-yl)-2-((tetrahydro-1H-pyrrolizin-7a(5H)-yl)methoxy)pyrido[4,3-d]pyrimidin-4-yl)-3-azabicyclo[3.2.1]octane-8-carboxylate] | 52200 nM | 15900 nM | > 100000 nM |
| O=C(Oc1ccc(F)c(F)c1)C1CCCN(c2nc(OCC34CCCN3CCC4)nc3c(F)c(-c4cccc5cccc(F)c45)ncc23)CC1 (stereo not drawn) [Example 48, 3,4-difluorophenyl 1-(8-fluoro-7-(8-fluoronaphthalen-1-yl)-2-((tetrahydro-1H-pyrrolizin-7a(5H)-yl)methoxy)pyrido[4,3-d]pyrimidin-4-yl) azepane-4-carboxylate] |  | 2740 nM | 30100 nM |
| O=C(Oc1c(F)cccc1F)[C@@H]1[C@@H]2CC[C@H]1CN(c1nc(OCC34CCCN3CCC4)nc3c(F)c(-c4cccc5cccc(F)c45)ncc13)C2 [Example 24, 2,6-difluorophenyl (1R,5S,8r)-3-(8-fluoro-7-(8-fluoronaphthalen-1-yl)-2-((tetrahydro-1H-pyrrolizin-7a(5H)-yl)methoxy)pyrido[4,3-d]pyrimidin-4-yl)-3-azabicyclo[3.2.1]octane-8-carboxylate] | 17700 nM | 30500 nM | > 100000 nM |
| O=C1OCCN1C(=O)C1CCN(c2nc(OCC34CCCN3CCC4)nc3c(F)c(-c4cccc5cccc(F)c45)ncc23)CC1 [Example 2, 3-(1-(8-fluoro-7-(8-fluoronaphthalen-1-yl)-2-((tetrahydro-1H-pyrrolizin-7a(5H)-yl)methoxy)pyrido[4,3-d]pyrimidin-4-yl)piperidine-4-carbonyl)oxazolidin-2-one] | 73900 nM | > 100000 nM | 72500 nM |
| O=C(Oc1ccc(F)cc1)C1CCN(c2nc(OCC34CCCN3CCC4)nc3c(F)c(-c4cccc5cccc(F)c45)ncc23)CC1 [Example 14, 4-fluorophenyl 1-(8-fluoro-7-(8-fluoronaphthalen-1-yl)-2-((tetrahydro-1H-pyrrolizin-7a(5H)-yl)methoxy)pyrido[4,3-d]pyrimidin-4-yl)piperidine-4-carboxylate] | 45000 nM | 877 nM | > 100000 nM |
| N#Cc1ccccc1OC(=O)C1CCN(c2nc(OCC34CCCN3CCC4)nc3c(F)c(-c4cccc5cccc(F)c45)ncc23)CC1 [Example 27, 2-cyanophenyl 1-(8-fluoro-7-(8-fluoronaphthalen-1-yl)-2-((tetrahydro-1H-pyrrolizin-7a(5H)-yl)methoxy)pyrido[4,3-d]pyrimidin-4-yl)piperidine-4-carboxylate] | 89200 nM | 452 nM | > 100000 nM |
| COC(=O)C1CCCN(c2nc(OCC34CCCN3CCC4)nc3c(F)c(-c4cccc5cccc(F)c45)ncc23)CC1 (stereo not drawn) [Example 49, methyl 1-(8-fluoro-7-(8-fluoronaphthalen-1-yl)-2-((tetrahydro-1H-pyrrolizin-7a(5H)-yl)methoxy)pyrido[4,3-d]pyrimidin-4-yl) azepane-4-carboxylate] |  | 65900 nM | 54800 nM |
| O=C(Oc1ccccc1F)[C@@H]1[C@@H]2CC[C@H]1CN(c1nc(OCC34CCCN3CCC4)nc3c(F)c(-c4cccc5cccc(F)c45)ncc13)C2 [Example 25, 2-fluorophenyl (1R,5S,8s)-3-(8-fluoro-7-(8-fluoronaphthalen-1-yl)-2-((tetrahydro-1H-pyrrolizin-7a(5H)-yl)methoxy)pyrido[4,3-d]pyrimidin-4-yl)-3-azabicyclo[3.2.1]octane-8-carboxylate] | 10900 nM | 66900 nM | > 100000 nM |
| O=C(Oc1ccc(F)c(F)c1)[C@@H]1CCN(c2nc(OCC34CCCN3CCC4)nc3c(F)c(-c4cccc5cccc(F)c45)ncc23)C[C@@H]1O [Example 37, 3,4-difluorophenyl (3R,4R)-1-(8-fluoro-7-(8-fluoronaphthalen-1-yl)-2-((tetrahydro-1H-pyrrolizin-7a(5H)-yl)methoxy)pyrido[4,3-d]pyrimidin-4-yl)-3-hydroxypiperidine-4-carboxylate] | 20400 nM | 7290 nM | 20400 nM |
| N#Cc1cccc(OC(=O)C2CCN(c3nc(OCC45CCCN4CCC5)nc4c(F)c(-c5cccc6cccc(F)c56)ncc34)CC2)c1 [Example 28, 3-cyanophenyl 1-(8-fluoro-7-(8-fluoronaphthalen-1-yl)-2-((tetrahydro-1H-pyrrolizin-7a(5H)-yl)methoxy)pyrido[4,3-d]pyrimidin-4-yl)piperidine-4-carboxylate] | > 100000 nM | 724 nM | 74700 nM |
| CCc1c(F)ccc2cc(O)cc(-c3ncc4c(N(C)CCCC(=O)NC(C)=O)nc(OC[C@@]56CCCN5C[C@H](F)C6)nc4c3F)c12 [Example 325, N-acetyl-4-((7-(8-ethyl-7-fluoro-3-hydroxynaphthalen-1-yl)-8-fluoro-2-(((2R,7aS)-2-fluorotetrahydro-1H-pyrrolizin-7a(5H)-yl)methoxy)pyrido[4,3-d]pyrimidin-4-yl)(methyl)amino)butanamide] | 23 nM | 12 nM | 14 nM |
| O=C[C@@H]1[C@@H]2CC[C@H]1CN(c1nc(OCC34CCCN3CCC4)nc3c(F)c(-c4cccc5cccc(F)c45)ncc13)C2 [Example 17, (1R,5S,8r)-3-(8-fluoro-7-(8-fluoronaphthalen-1-yl)-2-((tetrahydro-1H-pyrrolizin-7a(5H)-yl)methoxy)pyrido[4,3-d]pyrimidin-4-yl)-3-azabicyclo[3.2.1]octane-8-carbaldehyde] | 5780 nM | 1080 nM | 15300 nM |
| Cc1cc(C)n(C(=O)C2CCN(c3nc(OCC45CCCN4CCC5)nc4c(F)c(-c5cccc6cccc(F)c56)ncc34)CC2)n1 [Example 9, (3,5-dimethyl-1H-pyrazol-1-yl)(1-(8-fluoro-7-(8-fluoronaphthalen-1-yl)-2-((tetrahydro-1H-pyrrolizin-7a(5H)-yl)methoxy)pyrido[4,3-d]pyrimidin-4-yl)piperidin-4-yl)methanone] | 64600 nM | 30600 nM | 31500 nM |
| O=C(Oc1ccccc1F)C1CCCN(c2nc(OCC34CCCN3CCC4)nc3c(F)c(-c4cccc5cccc(F)c45)ncc23)C1 (stereo not drawn) [Example 52, 2-fluorophenyl 1-(8-fluoro-7-(8-fluoronaphthalen-1-yl)-2-((tetrahydro-1H-pyrrolizin-7a(5H)-yl)methoxy)pyrido[4,3-d]pyrimidin-4-yl)piperidine-3-carboxylate] | 20200 nM | 6810 nM | 27100 nM |
| O=C(Oc1ccc(F)cc1)[C@H]1[C@@H]2C[C@H]1CN(c1nc(OCC34CCCN3CCC4)nc3c(F)c(-c4cccc5cccc(F)c45)ncc13)C2 [Example 8, 4-fluorophenyl (1R,5S,6s)-3-(8-fluoro-7-(8-fluoronaphthalen-1-yl)-2-((tetrahydro-1H-pyrrolizin-7a(5H)-yl)methoxy)pyrido[4,3-d]pyrimidin-4-yl)-3-azabicyclo[3.1.1]heptane-6-carboxylate] | > 100000 nM | > 100000 nM | > 100000 nM |
| O=C(Oc1ccc(F)cc1F)C1CCN(c2nc(OCC34CCCN3CCC4)nc3c(F)c(-c4cccc5cccc(F)c45)ncc23)CC1 [Example 13, 2,4-difluorophenyl 1-(8-fluoro-7-(8-fluoronaphthalen-1-yl)-2-((tetrahydro-1H-pyrrolizin-7a(5H)-yl)methoxy)pyrido[4,3-d]pyrimidin-4-yl)piperidine-4-carboxylate] | 28700 nM | 272 nM | 39000 nM |
| O=C(Oc1ccc(F)c(F)c1)[C@H]1CCN(c2nc(OCC34CCCN3CCC4)nc3c(F)c(-c4cccc5cccc(F)c45)ncc23)C[C@H]1O [Example 36, 3,4-difluorophenyl (3S,4S)-1-(8-fluoro-7-(8-fluoronaphthalen-1-yl)-2-((tetrahydro-1H-pyrrolizin-7a(5H)-yl)methoxy)pyrido[4,3-d]pyrimidin-4-yl)-3-hydroxypiperidine-4-carboxylate] | > 100000 nM | 18900 nM | > 100000 nM |
| COC(=O)[C@H]1CCN(c2nc(OCC34CCCN3CCC4)nc3c(F)c(-c4cccc5cccc(F)c45)ncc23)C[C@@H]1O [Example 45, methyl (3R,4S)-1-(8-fluoro-7-(8-fluoronaphthalen-1-yl)-2-((tetrahydro-1H-pyrrolizin-7a(5H)-yl)methoxy)pyrido[4,3-d]pyrimidin-4-yl)-3-hydroxypiperidine-4-carboxylate] | 65700 nM | > 100000 nM | > 100000 nM |
| O=C(Oc1ccc(C(F)(F)F)cc1)C1CCCN(c2nc(OCC34CCCN3CCC4)nc3c(F)c(-c4cccc5cccc(F)c45)ncc23)CC1 (stereo not drawn) [Example 50, 4-(trifluoromethyl)phenyl 1-(8-fluoro-7-(8-fluoronaphthalen-1-yl)-2-((tetrahydro-1H-pyrrolizin-7a(5H)-yl)methoxy)pyrido[4,3-d]pyrimidin-4-yl) azepane-4-carboxylate] |  | 3440 nM | 55600 nM |
